Reference: ChEMBL document CHEMBL1151495, “Activity of new penems against defined MRSA strains” (1993)
Values after ≈ are worked out from the molar mass of the structure shown.

Tests used:
Assay type in all cases: functional
Staphylococcus aureus [1] = test: In vitro minimum inhibitory concentration against Staphylococcus aureus COL.
Staphylococcus aureus [2] = test: In vitro minimum inhibitory concentration against Staphylococcus aureus CDC1.
Staphylococcus aureus [3] = test: In vitro minimum inhibitory concentration against Staphylococcus aureus SN 7.
Staphylococcus aureus [4] = test: In vitro minimum inhibitory concentration against Staphylococcus aureus SN 43.

CC(O)[C@H]1C(=O)N2C(C(=O)O)=C(SCCNC=N)C[C@H]12.O (single isomer, unassigned) [IMIPENEM]
MIC (Staphylococcus aureus [1]): 25 µg/mL
MIC (Staphylococcus aureus [2]): 0.09 µg/mL
MIC (Staphylococcus aureus [3]): 0.19 µg/mL
MIC (Staphylococcus aureus [4]): 25 µg/mL

C[C@@H](O)[C@H]1C(=O)N2C(C(=O)O)=C(COC(=O)c3cn(C4CC4)c4cc(N5CCNCC5)c(F)cc4c3=O)S[C@H]12
MIC (Staphylococcus aureus [1]): 6.25 µg/mL (≈ 11.2 µM)
MIC (Staphylococcus aureus [2]): 0.39 µg/mL (≈ 0.698 µM)
MIC (Staphylococcus aureus [3]): 1.56 µg/mL (≈ 2.79 µM)
MIC (Staphylococcus aureus [4]): 50 µg/mL (≈ 89.5 µM)

C[C@@H](O)[C@H]1C(=O)N2C(C(=O)O)=C(COC(=O)c3ccc4c(ccc5ccccc54)c3)S[C@H]12
MIC (Staphylococcus aureus [1]): 3.12 µg/mL (≈ 6.94 µM)
MIC (Staphylococcus aureus [2]): 0.022 µg/mL (≈ 0.0489 µM)
MIC (Staphylococcus aureus [3]): 0.09 µg/mL (≈ 0.2 µM)
MIC (Staphylococcus aureus [4]): 6.25 µg/mL (≈ 13.9 µM)

C[C@@H](O)[C@H]1C(=O)N2C(C(=O)O)=C(COc3cncc(Cl)c3)S[C@H]12
MIC (Staphylococcus aureus [1]): 25 µg/mL (≈ 70.1 µM)
MIC (Staphylococcus aureus [2]): 0.09 µg/mL (≈ 0.252 µM)
MIC (Staphylococcus aureus [3]): 0.78 µg/mL (≈ 2.19 µM)
MIC (Staphylococcus aureus [4]): 50 µg/mL (≈ 140 µM)

C[C@@H](O)[C@H]1C(=O)N2C(C(=O)O)=C(COc3cncc4ccccc34)S[C@H]12
MIC (Staphylococcus aureus [1]): 6.25 µg/mL (≈ 16.8 µM)
MIC (Staphylococcus aureus [2]): 0.19 µg/mL (≈ 0.51 µM)
MIC (Staphylococcus aureus [3]): 3.12 µg/mL (≈ 8.38 µM)
MIC (Staphylococcus aureus [4]): 12.5 µg/mL (≈ 33.6 µM)

C[C@@H](O)[C@H]1C(=O)N2C(C(=O)O)=C(COc3ccccc3)S[C@H]12
MIC (Staphylococcus aureus [1]): 50 µg/mL (≈ 156 µM)
MIC (Staphylococcus aureus [2]): 0.39 µg/mL (≈ 1.21 µM)
MIC (Staphylococcus aureus [3]): 50 µg/mL (≈ 156 µM)
MIC (Staphylococcus aureus [4]): 100 µg/mL (≈ 311 µM)

C[C@@H](O)[C@H]1C(=O)N2C(C(=O)O)=C(COC(=O)c3ccccc3)S[C@H]12
MIC (Staphylococcus aureus [1]): 25 µg/mL (≈ 71.6 µM)
MIC (Staphylococcus aureus [2]): 0.09 µg/mL (≈ 0.258 µM)
MIC (Staphylococcus aureus [3]): 0.39 µg/mL (≈ 1.12 µM)
MIC (Staphylococcus aureus [4]): 50 µg/mL (≈ 143 µM)

C[C@@H](O)[C@H]1C(=O)N2C(C(=O)O)=C(COc3cccnc3)S[C@H]12
MIC (Staphylococcus aureus [1]): 100 µg/mL (≈ 310 µM)
MIC (Staphylococcus aureus [2]): 0.19 µg/mL (≈ 0.589 µM)
MIC (Staphylococcus aureus [3]): 0.78 µg/mL (≈ 2.42 µM)
MIC (Staphylococcus aureus [4]): 100 µg/mL (≈ 310 µM)

C[C@@H](O)[C@H]1C(=O)N2C(C(=O)O)=C(S[C@@H]3CN[C@H](C(=O)N(C)C)C3)[C@H](C)[C@H]12 [MEROPENEM]
MIC (Staphylococcus aureus [1]): 100 µg/mL (≈ 261 µM)
MIC (Staphylococcus aureus [2]): 0.19 µg/mL (≈ 0.495 µM)
MIC (Staphylococcus aureus [3]): 1.56 µg/mL (≈ 4.07 µM)
MIC (Staphylococcus aureus [4]): 25 µg/mL (≈ 65.2 µM)

C[C@@H](O)[C@H]1C(=O)N2C(C(=O)O)=C(COC(=O)c3cccnc3)S[C@H]12
MIC (Staphylococcus aureus [1]): 50 µg/mL (≈ 143 µM)
MIC (Staphylococcus aureus [2]): 0.09 µg/mL (≈ 0.257 µM)
MIC (Staphylococcus aureus [3]): 0.19 µg/mL (≈ 0.542 µM)
MIC (Staphylococcus aureus [4]): 100 µg/mL (≈ 285 µM)

C[C@@H](O)[C@H]1C(=O)N2C(C(=O)O)=C(COC(=O)c3ccc4ccc5ccccc5c4c3)S[C@H]12
MIC (Staphylococcus aureus [1]): 6.25 µg/mL (≈ 13.9 µM)
MIC (Staphylococcus aureus [2]): < 0.011 µg/mL
MIC (Staphylococcus aureus [3]): < 0.011 µg/mL
MIC (Staphylococcus aureus [4]): 6.25 µg/mL (≈ 13.9 µM)

C[C@@H](O)[C@H]1C(=O)N2C(C(=O)O)=C(COc3cnccn3)S[C@H]12
MIC (Staphylococcus aureus [1]): 100 µg/mL (≈ 309 µM)
MIC (Staphylococcus aureus [2]): 0.19 µg/mL (≈ 0.588 µM)
MIC (Staphylococcus aureus [3]): 0.39 µg/mL (≈ 1.21 µM)
MIC (Staphylococcus aureus [4]): > 100 µg/mL

C[C@@H](O)[C@H]1C(=O)N2C(C(=O)O)=C(COC(=O)c3ccc4ccccc4c3)S[C@H]12
MIC (Staphylococcus aureus [1]): 12.5 µg/mL (≈ 31.3 µM)
MIC (Staphylococcus aureus [2]): 0.09 µg/mL (≈ 0.225 µM)
MIC (Staphylococcus aureus [3]): 0.39 µg/mL (≈ 0.976 µM)
MIC (Staphylococcus aureus [4]): 6.25 µg/mL (≈ 15.6 µM)

C[C@@H](O)[C@H]1C(=O)N2C(C(=O)O)=C(COc3c(I)cc(Cl)c4cccnc34)S[C@H]12
MIC (Staphylococcus aureus [1]): 6.25 µg/mL (≈ 11.7 µM)
MIC (Staphylococcus aureus [2]): 0.09 µg/mL (≈ 0.169 µM)
MIC (Staphylococcus aureus [3]): 0.78 µg/mL (≈ 1.46 µM)
MIC (Staphylococcus aureus [4]): 25 µg/mL (≈ 46.9 µM)

C[C@@H](O)[C@H]1C(=O)N2C(C(=O)O)=C(COC(=O)c3cnc4ccccc4c3)S[C@H]12
MIC (Staphylococcus aureus [1]): 6.25 µg/mL (≈ 15.6 µM)
MIC (Staphylococcus aureus [2]): 0.09 µg/mL (≈ 0.225 µM)
MIC (Staphylococcus aureus [3]): 0.19 µg/mL (≈ 0.475 µM)
MIC (Staphylococcus aureus [4]): 12.5 µg/mL (≈ 31.2 µM)

C[C@@H](O)[C@H]1C(=O)N2C(C(=O)O)=C(COC(N)=O)S[C@H]12 [RITIPENEM]
MIC (Staphylococcus aureus [1]): 100 µg/mL (≈ 347 µM)
MIC (Staphylococcus aureus [2]): 0.19 µg/mL (≈ 0.659 µM)
MIC (Staphylococcus aureus [3]): 0.39 µg/mL (≈ 1.35 µM)
MIC (Staphylococcus aureus [4]): 100 µg/mL (≈ 347 µM)

COc1cccc(OC)c1C(=O)N[C@@H]1C(=O)N2[C@@H]1SC(C)(C)[C@@H]2C(=O)O [METHICILLIN]
MIC (Staphylococcus aureus [1]): > 100 µg/mL
MIC (Staphylococcus aureus [2]): 3.12 µg/mL (≈ 8.2 µM)
MIC (Staphylococcus aureus [3]): 6.25 µg/mL (≈ 16.4 µM)
MIC (Staphylococcus aureus [4]): > 100 µg/mL

O=C(O)c1cn(C2CC2)c2cc(N3CCNCC3)c(F)cc2c1=O [CIPROFLOXACIN]
MIC (Staphylococcus aureus [2]): 0.39 µg/mL (≈ 1.18 µM)
MIC (Staphylococcus aureus [3]): 0.78 µg/mL (≈ 2.35 µM)

C[C@@H](O)[C@H]1C(=O)N2C(C(=O)O)=C(COC(=O)c3cnccn3)S[C@H]12
MIC (Staphylococcus aureus [1]): 100 µg/mL (≈ 285 µM)
MIC (Staphylococcus aureus [2]): 0.19 µg/mL (≈ 0.541 µM)
MIC (Staphylococcus aureus [3]): 0.39 µg/mL (≈ 1.11 µM)
MIC (Staphylococcus aureus [4]): > 100 µg/mL
